Experimental data taken from patent publication US9428483B2, “Prodrug of fluorine-containing amino acid” (TAISHO PHARMACEUTICAL CO., LTD., priority 2012, dated 2016).

Assay: Test 1: Solution Stability Test
Type: physicochemical
Conditions: 37° C., one hour, about 50 μg/mL; for Compound's percent residue (%) pH 6.5: 20 mM phosphate buffer (pH 6.5); for Compound's percent residue (%) pH 1.2: hydrochloric acid solution (pH 1.2)
Experimental: Inventive Compounds (I) were tested for their stability in solutions simulating the gastric and small intestine's digestive fluids identified below.
The percent residues of Inventive Compounds (I) in a hydrochloric acid solution (pH 1.2) and 20 mM phosphate buffer (pH 6.5) were measured in accordance with the following test method.
A test compound was dissolved in a hydrochloric acid solution (pH 1.2) containing hydrochloric acid and sodium chloride or a 20 mM phosphate buffer (pH 6.5) containing disodium hydrogenphosphate, sodium dihydrogenphosphate and sodium chloride to prepare a solution with a concentration of about 50 μg/mL (near the solubility if undissolved). The solution was incubated at 37° C. for an hour and the compound's concentration before and after the incubation was quantified by high-performance liquid chromatography to calculate the percent residue of the compound.

Compound's percent residue (%) pH 6.5 [%] | Compound's percent residue (%) pH 1.2 [%] | SMILES
101 | 100 | CC(C)COC(C)OC(=O)[C@H]1[C@@H]2C[C@H](F)[C@@](N)(C(=O)O)[C@@H]21.Cl (stereo partly drawn) [Ex. A-8, (1S,2S,3S,5R,6S)-2-amino-3-fluoro-6-((1-(isobutyloxy)ethoxy)carbonyl)bicyclo[3.1.0]hexane-2-carboxylic acid hydrochloride]
93 | 93 | N[C@]1(C(=O)O)[C@H]2[C@@H](C[C@@H]1F)[C@@H]2C(=O)OCOC(=O)OC12CC3CC(CC(C3)C1)C2 [Ex. A-13, (1S,2S,3S,5R,6S)-6-(((((adamantan-1-yloxy)carbonyl)oxy)methoxy)carbonyl)-2-amino-3-fluorobicyclo[3.1.0]hexane-2-carboxylic acid]
99 | 100 | N[C@]1(C(=O)O)[C@H]2[C@@H](C[C@@H]1F)[C@@H]2C(=O)OCOC(=O)C12CC3CC(CC(C3)C1)C2 [Ex. A-1, (1S,2S,3S,5R,6S)-6-(((adamantane-1-carbonyl)oxy)methoxy)carbonyl-2-amino-3-fluorobicyclo[3.1.0]hexane-2-carboxylic acid]
98 | 99 | Cc1oc(=O)oc1COC(=O)[C@H]1[C@@H]2C[C@H](F)[C@@](N)(C(=O)O)[C@@H]21 [Ex. A-16, (1S,2S,3S,5R,6S)-2-amino-3-fluoro-6-(((5-methyl-2-oxo-1,3-dioxol-4-yl)methoxy)carbonyl)bicyclo[3.1.0]hexane-2-carboxylic acid]
98 | 99 | CC(C)[C@@H]1CC[C@@H](C)C[C@H]1OC(=O)OCOC(=O)[C@H]1[C@@H]2C[C@H](F)[C@@](N)(C(=O)O)[C@@H]21 [Ex. A-4, (1S,2S,3S,5R,6S)-2-amino-3-fluoro-6-(((((((1R,2S,5R)-2-isopropyl-5-methylcyclohexyl)oxy)carbonyl)oxy)methoxy)carbonyl)bicyclo[3.1.0]hexane-2-carboxylic acid]
101 | 101 | CC(OC(=O)[C@H]1[C@@H]2C[C@H](F)[C@@](N)(C(=O)O)[C@@H]21)OC(=O)C12CC3CC(CC(C3)C1)C2 (stereo partly drawn) [Ex. A-2, (1S,2S,3S,5R,6S)-6-(1-((adamantane-1-carbonyl)oxy)ethoxy)carbonyl-2-amino-3-fluorobicyclo[3.1.0]hexane-2-carboxylic acid]
97 | 99 | Cl.N[C@]1(C(=O)O)[C@H]2[C@@H](C[C@@H]1F)[C@@H]2C(=O)OC1OC(=O)c2ccccc21 (stereo partly drawn) [Ex. A-17, (1S,2S,3S,5R,6S)-2-amino-3-fluorobicyclo[3.1.0]hexane-2,6-dicarboxylic acid 6-(3-phthalidyl) ester hydrochloride]
99 | 100 | CC(C)(C)C(=O)OCOC(=O)[C@H]1[C@@H]2C[C@H](F)[C@@](N)(C(=O)O)[C@@H]21 [Ex. A-7, (1S,2S,3S,5R,6S)-2-amino-3-fluoro-6-(((pivaloyloxy)methoxy)carbonyl)bicyclo[3.1.0]hexane-2-carboxylic acid]
97 | 100 | CC(OC(=O)OC1CCCCC1)OC(=O)[C@H]1[C@@H]2C[C@H](F)[C@@](N)(C(=O)O)[C@@H]21 (stereo partly drawn) [Ex. A-10, (1S,2S,3S,5R,6S)-2-amino-6-((1-(((cyclohexyloxy)carbonyl)oxy)ethoxy)carbonyl)-3-fluorobicyclo[3.1.0]hexane-2-carboxylic acid]
97 | 95 | CC(OC(=O)OC12CC3CC(CC(C3)C1)C2)OC(=O)[C@H]1[C@@H]2C[C@H](F)[C@@](N)(C(=O)O)[C@@H]21 (stereo partly drawn) [Ex. A-14, (1S,2S,3S,5R,6S)-6-((1-(((adamantan-1-yloxy)carbonyl)oxy)ethoxy)carbonyl)-2-amino-3-fluorobicyclo[3.1.0]hexane-2-carboxylic acid]
